In PubChem BioAssay (NCI):
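A five-concentration, 48-hour dose response in 96-well plates underlies each endpoint, interpolated linearly between surrounding concentrations. TGI: total growth inhibition.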

Columns and labels:
Experiment in all cases: growth of human tumour cells (NCI), 48 h
M14 melanoma = tested on: M14 melanoma
OVCAR-3 ovarian = tested on: OVCAR-3 ovarian
LOX IMVI melanoma = tested on: LOX IMVI melanoma
XF 498 CNS = tested on: XF 498 CNS
HCT-15 colon = tested on: HCT-15 colon
OVCAR-5 ovarian = tested on: OVCAR-5 ovarian
MALME-3M melanoma = tested on: MALME-3M melanoma
UACC-257 melanoma = tested on: UACC-257 melanoma
SF-539 CNS = tested on: SF-539 CNS
SR leukemia = tested on: SR leukemia
HCT-116 colon = tested on: HCT-116 colon
NCI-H460 lung = tested on: NCI-H460 lung
CAKI-1 renal = tested on: CAKI-1 renal
COLO 205 colon = tested on: COLO 205 colon
HOP-18 NSCLC = tested on: HOP-18 NSCLC
OVCAR-8 ovarian = tested on: OVCAR-8 ovarian
SF-268 CNS = tested on: SF-268 CNS
EKVX NSCLC = tested on: EKVX NSCLC
SNB-75 CNS = tested on: SNB-75 CNS
CCRF-CEM leukemia = tested on: CCRF-CEM leukemia
K-562 leukemia = tested on: K-562 leukemia
786-0 renal = tested on: 786-0 renal
A549 NSCLC = tested on: A549 NSCLC
IGROV1 ovarian = tested on: IGROV1 ovarian
MOLT-4 leukemia = tested on: MOLT-4 leukemia
UO-31 renal = tested on: UO-31 renal
HL-60(TB) leukemia = tested on: HL-60(TB) leukemia
SK-MEL-2 melanoma = tested on: SK-MEL-2 melanoma
RPMI-8226 leukemia = tested on: RPMI-8226 leukemia
SW-620 colon = tested on: SW-620 colon
HOP-92 NSCLC = tested on: HOP-92 NSCLC
SK-OV-3 ovarian = tested on: SK-OV-3 ovarian
LXFL 529 NSCLC = tested on: LXFL 529 NSCLC
UACC-62 melanoma = tested on: UACC-62 melanoma
SN12C renal = tested on: SN12C renal
M19-MEL melanoma = tested on: M19-MEL melanoma
SK-MEL-28 melanoma = tested on: SK-MEL-28 melanoma
SNB-78 CNS = tested on: SNB-78 CNS
DLD-1 colon = tested on: DLD-1 colon
U251 CNS = tested on: U251 CNS
HT29 colon = tested on: HT29 colon
RXF 393 renal = tested on: RXF 393 renal
NCI-H226 lung = tested on: NCI-H226 lung
HOP-62 NSCLC = tested on: HOP-62 NSCLC
ACHN renal = tested on: ACHN renal
SF-295 CNS = tested on: SF-295 CNS
KM20L2 colon = tested on: KM20L2 colon
DMS 114 small cell lung = tested on: DMS 114 small cell lung
KM12 colon = tested on: KM12 colon
A498 renal = tested on: A498 renal
HCC-2998 colon = tested on: HCC-2998 colon
DMS 273 small cell lung = tested on: DMS 273 small cell lung
OVCAR-4 ovarian = tested on: OVCAR-4 ovarian
TK-10 renal = tested on: TK-10 renal
SK-MEL-5 melanoma = tested on: SK-MEL-5 melanoma
NCI-H23 lung = tested on: NCI-H23 lung
SNB-19 CNS = tested on: SNB-19 CNS
NCI-H522 lung = tested on: NCI-H522 lung
RXF-631 renal = tested on: RXF-631 renal

SMILES: COc1ccc(OC)c(/C(C)=N/NC(N)=S)c1
- TGI (M14 melanoma): > 100 µM
- TGI (OVCAR-3 ovarian): > 100 µM
- TGI (LOX IMVI melanoma): > 100 µM
- TGI (XF 498 CNS): > 100 µM
- TGI (HCT-15 colon): > 100 µM
- TGI (OVCAR-5 ovarian): > 100 µM
- TGI (MALME-3M melanoma): > 100 µM
- TGI (UACC-257 melanoma): > 100 µM
- TGI (SF-539 CNS): > 100 µM
- TGI (SR leukemia): > 100 µM
- TGI (HCT-116 colon): > 100 µM
- TGI (NCI-H460 lung): > 100 µM
- TGI (CAKI-1 renal): > 100 µM
- TGI (COLO 205 colon): > 100 µM
- TGI (HOP-18 NSCLC): > 100 µM
- TGI (OVCAR-8 ovarian): > 100 µM
- TGI (SF-268 CNS): > 100 µM
- TGI (EKVX NSCLC): > 100 µM
- TGI (SNB-75 CNS): > 100 µM
- TGI (CCRF-CEM leukemia): > 100 µM
- TGI (K-562 leukemia): > 100 µM
- TGI (786-0 renal): > 100 µM
- TGI (A549 NSCLC): > 100 µM
- TGI (IGROV1 ovarian): > 100 µM
- TGI (MOLT-4 leukemia): > 100 µM
- TGI (UO-31 renal): > 100 µM
- TGI (HL-60(TB) leukemia): > 100 µM
- TGI (SK-MEL-2 melanoma): > 100 µM
- TGI (RPMI-8226 leukemia): > 100 µM
- TGI (SW-620 colon): > 100 µM
- TGI (HOP-92 NSCLC): > 100 µM
- TGI (SK-OV-3 ovarian): > 100 µM
- TGI (LXFL 529 NSCLC): > 100 µM
- TGI (UACC-62 melanoma): > 100 µM
- TGI (SN12C renal): > 100 µM
- TGI (M19-MEL melanoma): > 100 µM
- TGI (SK-MEL-28 melanoma): > 100 µM
- TGI (SNB-78 CNS): > 100 µM
- TGI (DLD-1 colon): > 100 µM
- TGI (U251 CNS): > 100 µM
- TGI (HT29 colon): > 100 µM
- TGI (RXF 393 renal): > 100 µM
- TGI (NCI-H226 lung): > 100 µM
- TGI (HOP-62 NSCLC): > 100 µM
- TGI (ACHN renal): > 100 µM
- TGI (SF-295 CNS): > 100 µM
- TGI (KM20L2 colon): > 100 µM
- TGI (DMS 114 small cell lung): > 100 µM
- TGI (KM12 colon): > 100 µM
- TGI (A498 renal): > 100 µM
- TGI (HCC-2998 colon): > 100 µM
- TGI (DMS 273 small cell lung): > 100 µM
- TGI (OVCAR-4 ovarian): > 100 µM
- TGI (TK-10 renal): > 100 µM
- TGI (SK-MEL-5 melanoma): > 100 µM
- TGI (NCI-H23 lung): > 100 µM

SMILES: O=C1c2ccc(O)cc2C(=O)c2ccc(O)cc21
- TGI (M14 melanoma): > 100 µM
- TGI (OVCAR-3 ovarian): > 100 µM
- TGI (LOX IMVI melanoma): > 100 µM
- TGI (XF 498 CNS): > 100 µM
- TGI (HCT-15 colon): > 100 µM
- TGI (OVCAR-5 ovarian): > 100 µM
- TGI (MALME-3M melanoma): > 100 µM
- TGI (SNB-19 CNS): > 100 µM
- TGI (UACC-257 melanoma): > 100 µM
- TGI (SF-539 CNS): > 100 µM
- TGI (HCT-116 colon): > 100 µM
- TGI (NCI-H460 lung): > 100 µM
- TGI (CAKI-1 renal): > 100 µM
- TGI (COLO 205 colon): > 100 µM
- TGI (OVCAR-8 ovarian): > 100 µM
- TGI (SF-268 CNS): > 100 µM
- TGI (EKVX NSCLC): > 100 µM
- TGI (SNB-75 CNS): 81.5 µM
- TGI (CCRF-CEM leukemia): > 100 µM
- TGI (NCI-H522 lung): > 100 µM
- TGI (K-562 leukemia): > 100 µM
- TGI (786-0 renal): > 100 µM
- TGI (A549 NSCLC): > 100 µM
- TGI (IGROV1 ovarian): > 100 µM
- TGI (MOLT-4 leukemia): > 100 µM
- TGI (UO-31 renal): 73.2 µM
- TGI (HL-60(TB) leukemia): > 100 µM
- TGI (SK-MEL-2 melanoma): > 100 µM
- TGI (RPMI-8226 leukemia): > 100 µM
- TGI (SW-620 colon): > 100 µM
- TGI (HOP-92 NSCLC): > 100 µM
- TGI (SK-OV-3 ovarian): 84.8 µM
- TGI (LXFL 529 NSCLC): > 100 µM
- TGI (UACC-62 melanoma): > 100 µM
- TGI (SN12C renal): > 100 µM
- TGI (M19-MEL melanoma): > 100 µM
- TGI (SK-MEL-28 melanoma): > 100 µM
- TGI (SNB-78 CNS): > 100 µM
- TGI (RXF-631 renal): > 100 µM
- TGI (DLD-1 colon): > 100 µM
- TGI (U251 CNS): > 100 µM
- TGI (HT29 colon): > 100 µM
- TGI (RXF 393 renal): 91.8 µM
- TGI (HOP-62 NSCLC): > 100 µM
- TGI (ACHN renal): > 100 µM
- TGI (SF-295 CNS): > 100 µM
- TGI (DMS 114 small cell lung): > 100 µM
- TGI (KM12 colon): > 100 µM
- TGI (A498 renal): > 100 µM
- TGI (HCC-2998 colon): > 100 µM
- TGI (DMS 273 small cell lung): > 100 µM
- TGI (OVCAR-4 ovarian): > 100 µM
- TGI (TK-10 renal): > 100 µM
- TGI (SK-MEL-5 melanoma): > 100 µM
- TGI (NCI-H23 lung): > 100 µM
